The kinase profiling compilation of Christmann-Franck et al. (2016)

How the values were obtained:
Assay in all cases: KINOMEscan competition binding
Details in all cases: compound 10.0 µM
[1] = target: CASK (human) (UniProt O14936)
[2] = target: STK17A (human) (UniProt Q9UEE5)
[3] = target: PRKCQ (human) (UniProt Q04759)
[4] = target: PHKG2 (human) (UniProt P15735)
[5] = target: MARK2 (human) (UniProt Q7KZI7)
[6] = target: EPHA5 (human) (UniProt P54756)
[7] = target: MAP4K2 (human) (UniProt Q12851)
[8] = target: RPS6KA4 KD1 (human) (UniProt O75676)
[9] = target: DSTYK (human) (UniProt Q6XUX3)
[10] = target: MAP2K5 (human) (UniProt Q13163)
[11] = target: MAP3K1 (human) (UniProt Q13233)
[12] = target: SIK3 (human) (UniProt Q9Y2K2)
[13] = target: ANKK1 (human) (UniProt Q8NFD2)
[14] = target: PKN2 (human) (UniProt Q16513)
[15] = target: MAP3K4 (human) (UniProt Q9Y6R4)
[16] = target: ROCK1 (human) (UniProt Q13464)
[17] = target: RIOK2 (human) (UniProt Q9BVS4)
[18] = target: DDR2 (human) (UniProt Q16832)
[19] = target: PDGFRB (human) (UniProt P09619)
[20] = target: EPHB1 (human) (UniProt P54762)
[21] = target: NEK2 (human) (UniProt P51955)
[22] = target: DCLK2 (human) (UniProt Q8N568)
[23] = target: INSRR (human) (UniProt P14616)
[24] = target: FGR (human) (UniProt P09769)
[25] = target: JAK1 JH2 pseudokinase (human) (UniProt P23458)
[26] = target: EPHA6 (human) (UniProt Q9UF33)
[27] = target: FES (human) (UniProt P07332)
[28] = target: MAP3K7 (human) (UniProt O43318)
[29] = target: PRKCI (human) (UniProt P41743)
[30] = target: MAP3K3 (human) (UniProt Q99759)
[31] = target: DAPK2 (human) (UniProt Q9UIK4)
[32] = target: ZAP70 (human) (UniProt P43403)
[33] = target: WEE1 (human) (UniProt P30291)
[34] = target: CDK18 (human) (UniProt Q07002)
[35] = target: LTK (human) (UniProt P29376)
[36] = target: LIMK2 (human) (UniProt P53671)
[37] = target: CDK4 CCND3 (human) (UniProt P11802+P30281)
[38] = target: EPHB3 (human) (UniProt P54753)
[39] = target: DCLK3 (human) (UniProt Q9C098)
[40] = target: IRAK1 (human) (UniProt P51617)

Chain of DCLK3 (human) (Q9C098 whole entry, looked up): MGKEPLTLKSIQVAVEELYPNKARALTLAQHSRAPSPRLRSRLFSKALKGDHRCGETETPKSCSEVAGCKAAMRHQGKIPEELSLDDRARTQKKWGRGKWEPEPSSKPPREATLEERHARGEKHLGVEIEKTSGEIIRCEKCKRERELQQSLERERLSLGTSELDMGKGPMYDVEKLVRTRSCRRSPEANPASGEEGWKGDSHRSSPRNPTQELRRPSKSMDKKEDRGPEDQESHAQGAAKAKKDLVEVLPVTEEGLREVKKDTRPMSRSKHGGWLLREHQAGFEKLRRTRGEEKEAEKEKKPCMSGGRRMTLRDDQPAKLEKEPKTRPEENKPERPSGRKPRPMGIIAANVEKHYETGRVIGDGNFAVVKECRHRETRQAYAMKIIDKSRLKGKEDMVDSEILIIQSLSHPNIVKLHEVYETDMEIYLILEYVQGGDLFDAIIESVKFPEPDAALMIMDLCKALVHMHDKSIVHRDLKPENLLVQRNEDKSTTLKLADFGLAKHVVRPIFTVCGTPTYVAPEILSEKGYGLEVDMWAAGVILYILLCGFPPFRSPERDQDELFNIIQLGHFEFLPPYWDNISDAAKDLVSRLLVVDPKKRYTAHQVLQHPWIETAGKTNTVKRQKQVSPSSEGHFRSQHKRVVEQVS
Chain of PHKG2 (human) (P15735 whole entry, looked up): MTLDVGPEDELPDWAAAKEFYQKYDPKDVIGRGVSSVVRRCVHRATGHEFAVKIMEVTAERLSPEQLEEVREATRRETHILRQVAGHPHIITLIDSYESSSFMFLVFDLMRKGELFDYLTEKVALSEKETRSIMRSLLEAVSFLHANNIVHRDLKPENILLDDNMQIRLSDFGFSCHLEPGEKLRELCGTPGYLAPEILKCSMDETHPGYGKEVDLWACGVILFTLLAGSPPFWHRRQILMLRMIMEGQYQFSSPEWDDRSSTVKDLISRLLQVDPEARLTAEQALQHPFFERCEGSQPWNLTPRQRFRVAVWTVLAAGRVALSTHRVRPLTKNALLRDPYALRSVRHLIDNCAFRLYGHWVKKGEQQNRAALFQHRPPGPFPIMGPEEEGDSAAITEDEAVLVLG
Chain of PRKCI (human) (P41743 whole entry, looked up): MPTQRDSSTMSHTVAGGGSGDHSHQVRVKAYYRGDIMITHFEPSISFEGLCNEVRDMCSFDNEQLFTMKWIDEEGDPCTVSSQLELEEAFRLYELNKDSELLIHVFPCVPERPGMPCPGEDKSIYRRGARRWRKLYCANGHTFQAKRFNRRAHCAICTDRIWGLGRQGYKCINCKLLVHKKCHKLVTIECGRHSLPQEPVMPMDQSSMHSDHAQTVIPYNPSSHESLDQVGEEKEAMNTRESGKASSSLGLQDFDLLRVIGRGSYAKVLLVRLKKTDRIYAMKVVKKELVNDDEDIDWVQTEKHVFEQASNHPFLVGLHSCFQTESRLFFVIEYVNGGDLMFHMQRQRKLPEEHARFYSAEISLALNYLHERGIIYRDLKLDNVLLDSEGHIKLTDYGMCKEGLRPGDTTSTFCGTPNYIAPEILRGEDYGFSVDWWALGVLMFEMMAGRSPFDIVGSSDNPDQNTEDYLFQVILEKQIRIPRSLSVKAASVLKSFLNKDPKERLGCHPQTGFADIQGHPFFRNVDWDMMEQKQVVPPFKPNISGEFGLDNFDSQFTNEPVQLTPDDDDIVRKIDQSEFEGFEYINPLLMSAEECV
Chain of CASK (human) (O14936 whole entry, looked up): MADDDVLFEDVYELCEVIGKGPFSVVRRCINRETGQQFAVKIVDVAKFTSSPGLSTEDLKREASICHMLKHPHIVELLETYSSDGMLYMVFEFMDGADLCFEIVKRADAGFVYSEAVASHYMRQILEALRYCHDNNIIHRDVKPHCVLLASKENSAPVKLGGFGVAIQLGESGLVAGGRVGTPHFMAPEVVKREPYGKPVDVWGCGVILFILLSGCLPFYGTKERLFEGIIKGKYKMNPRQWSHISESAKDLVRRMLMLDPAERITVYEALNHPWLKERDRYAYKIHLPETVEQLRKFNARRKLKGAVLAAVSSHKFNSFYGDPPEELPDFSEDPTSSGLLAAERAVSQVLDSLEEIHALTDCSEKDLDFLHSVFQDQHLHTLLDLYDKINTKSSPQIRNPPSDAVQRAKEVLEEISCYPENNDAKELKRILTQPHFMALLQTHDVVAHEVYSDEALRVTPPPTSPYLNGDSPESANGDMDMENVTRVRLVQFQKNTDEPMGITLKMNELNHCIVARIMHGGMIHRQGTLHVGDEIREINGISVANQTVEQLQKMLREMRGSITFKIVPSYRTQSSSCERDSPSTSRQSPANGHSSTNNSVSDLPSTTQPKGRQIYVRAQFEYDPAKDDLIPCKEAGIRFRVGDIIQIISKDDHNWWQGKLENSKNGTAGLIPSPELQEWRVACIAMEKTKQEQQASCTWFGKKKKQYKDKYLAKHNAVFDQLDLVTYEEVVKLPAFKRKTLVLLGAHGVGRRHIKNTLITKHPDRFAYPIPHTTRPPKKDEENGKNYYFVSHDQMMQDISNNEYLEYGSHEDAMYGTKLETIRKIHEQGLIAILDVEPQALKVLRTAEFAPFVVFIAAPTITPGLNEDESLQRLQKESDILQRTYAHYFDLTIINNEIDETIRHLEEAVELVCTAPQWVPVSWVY
Chain of MAP4K2 (human) (Q12851 whole entry, looked up): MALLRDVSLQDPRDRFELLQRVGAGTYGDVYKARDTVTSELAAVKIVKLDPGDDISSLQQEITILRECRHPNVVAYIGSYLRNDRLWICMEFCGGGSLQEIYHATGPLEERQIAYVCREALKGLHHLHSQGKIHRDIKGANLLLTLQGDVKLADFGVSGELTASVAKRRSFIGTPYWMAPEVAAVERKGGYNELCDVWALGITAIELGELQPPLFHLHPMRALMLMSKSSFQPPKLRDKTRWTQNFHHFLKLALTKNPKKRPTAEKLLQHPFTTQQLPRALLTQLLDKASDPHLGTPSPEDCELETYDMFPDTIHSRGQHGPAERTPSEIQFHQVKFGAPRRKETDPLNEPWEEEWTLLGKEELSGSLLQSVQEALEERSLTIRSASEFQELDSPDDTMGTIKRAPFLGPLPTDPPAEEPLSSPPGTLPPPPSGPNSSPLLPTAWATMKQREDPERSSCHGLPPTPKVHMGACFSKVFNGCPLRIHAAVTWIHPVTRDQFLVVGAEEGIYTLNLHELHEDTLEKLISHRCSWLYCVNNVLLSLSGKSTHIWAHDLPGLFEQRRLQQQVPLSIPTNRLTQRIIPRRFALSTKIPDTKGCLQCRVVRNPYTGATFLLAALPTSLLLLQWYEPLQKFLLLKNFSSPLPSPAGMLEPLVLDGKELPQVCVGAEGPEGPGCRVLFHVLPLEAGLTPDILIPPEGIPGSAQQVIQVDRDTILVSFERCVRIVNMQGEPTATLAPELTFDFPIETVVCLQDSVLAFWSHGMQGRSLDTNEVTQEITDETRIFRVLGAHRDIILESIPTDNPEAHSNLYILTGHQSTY
Chain of MAP3K4 (human) (Q9Y6R4 whole entry, looked up): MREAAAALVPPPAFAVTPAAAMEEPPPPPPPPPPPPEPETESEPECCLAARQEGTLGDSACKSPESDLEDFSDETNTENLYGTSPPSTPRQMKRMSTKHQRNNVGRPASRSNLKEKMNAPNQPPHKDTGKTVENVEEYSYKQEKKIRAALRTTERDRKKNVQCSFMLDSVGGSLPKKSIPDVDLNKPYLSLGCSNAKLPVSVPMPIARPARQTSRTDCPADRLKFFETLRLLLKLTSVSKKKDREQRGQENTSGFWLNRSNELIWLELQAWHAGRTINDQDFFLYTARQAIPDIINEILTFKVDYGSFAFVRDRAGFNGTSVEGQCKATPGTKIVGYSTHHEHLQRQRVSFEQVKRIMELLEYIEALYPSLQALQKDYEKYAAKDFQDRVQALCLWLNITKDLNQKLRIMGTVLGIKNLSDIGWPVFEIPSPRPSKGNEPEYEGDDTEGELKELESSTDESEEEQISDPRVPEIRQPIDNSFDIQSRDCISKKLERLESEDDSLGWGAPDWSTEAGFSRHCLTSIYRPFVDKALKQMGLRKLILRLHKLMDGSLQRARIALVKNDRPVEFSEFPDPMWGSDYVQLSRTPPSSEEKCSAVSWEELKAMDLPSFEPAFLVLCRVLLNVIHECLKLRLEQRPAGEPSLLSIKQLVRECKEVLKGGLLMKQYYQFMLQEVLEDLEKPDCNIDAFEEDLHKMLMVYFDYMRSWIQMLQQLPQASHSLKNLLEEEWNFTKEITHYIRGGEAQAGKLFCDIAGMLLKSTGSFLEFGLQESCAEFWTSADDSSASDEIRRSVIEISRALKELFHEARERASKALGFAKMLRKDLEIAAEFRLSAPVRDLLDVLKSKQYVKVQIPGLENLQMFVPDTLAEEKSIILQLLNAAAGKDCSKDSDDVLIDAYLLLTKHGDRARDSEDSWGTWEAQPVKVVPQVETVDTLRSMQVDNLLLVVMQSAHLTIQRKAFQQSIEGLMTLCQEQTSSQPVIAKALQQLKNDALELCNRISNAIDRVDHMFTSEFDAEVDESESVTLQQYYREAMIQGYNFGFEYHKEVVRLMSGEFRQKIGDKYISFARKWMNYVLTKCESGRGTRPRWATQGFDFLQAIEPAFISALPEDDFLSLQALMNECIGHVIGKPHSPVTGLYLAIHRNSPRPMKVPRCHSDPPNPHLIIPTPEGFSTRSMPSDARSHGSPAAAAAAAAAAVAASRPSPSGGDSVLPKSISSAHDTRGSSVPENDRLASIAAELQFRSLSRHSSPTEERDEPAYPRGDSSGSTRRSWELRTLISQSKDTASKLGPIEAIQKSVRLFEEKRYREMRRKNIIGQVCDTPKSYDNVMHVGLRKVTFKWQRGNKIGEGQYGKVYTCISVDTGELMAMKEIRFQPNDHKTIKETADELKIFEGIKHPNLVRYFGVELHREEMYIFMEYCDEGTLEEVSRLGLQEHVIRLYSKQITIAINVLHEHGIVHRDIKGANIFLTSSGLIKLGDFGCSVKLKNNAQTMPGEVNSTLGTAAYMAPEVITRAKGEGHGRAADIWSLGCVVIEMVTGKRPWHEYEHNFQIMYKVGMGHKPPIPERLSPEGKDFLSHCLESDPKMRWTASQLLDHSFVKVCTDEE

Q: Which results are given for `O=c1cc(N2CCOCC2)oc2c(-c3cccc4c3sc3ccccc34)cccc12`?
A: kinase still bound, per cent of control [1]: 100%; kinase still bound, per cent of control [2]: 95%; kinase still bound, per cent of control [3]: 100%; kinase still bound, per cent of control [4]: 99%; kinase still bound, per cent of control [5]: 90%; kinase still bound, per cent of control [6]: 100%; kinase still bound, per cent of control [7]: 100%; kinase still bound, per cent of control [8]: 79%; kinase still bound, per cent of control [9]: 99%; kinase still bound, per cent of control [10]: 98%; kinase still bound, per cent of control [11]: 100%; kinase still bound, per cent of control [12]: 92%; kinase still bound, per cent of control [13]: 100%; kinase still bound, per cent of control [14]: 86%; kinase still bound, per cent of control [15]: 100%; kinase still bound, per cent of control [16]: 100%; kinase still bound, per cent of control [17]: 22%; kinase still bound, per cent of control [18]: 100%; kinase still bound, per cent of control [19]: 76%; kinase still bound, per cent of control [20]: 100%; kinase still bound, per cent of control [21]: 96%; kinase still bound, per cent of control [22]: 100%; kinase still bound, per cent of control [23]: 100%; kinase still bound, per cent of control [24]: 92%; kinase still bound, per cent of control [25]: 72%; kinase still bound, per cent of control [26]: 89%; kinase still bound, per cent of control [27]: 93%; kinase still bound, per cent of control [28]: 100%; kinase still bound, per cent of control [29]: 100%; kinase still bound, per cent of control [30]: 92%; kinase still bound, per cent of control [31]: 90%; kinase still bound, per cent of control [32]: 100%; kinase still bound, per cent of control [33]: 100%; kinase still bound, per cent of control [34]: 100%; kinase still bound, per cent of control [35]: 93%; kinase still bound, per cent of control [36]: 100%; kinase still bound, per cent of control [37]: 100%; kinase still bound, per cent of control [38]: 100%; kinase still bound, per cent of control [39]: 100%; kinase still bound, per cent of control [40]: 96%

Q: How did the kinase still bound, per cent of control [1] turn out when `CCN1CCN(C(=O)Cc2ccc(Nc3ncc(F)c(Nc4ccc(C(=O)Nc5ccccc5Cl)cc4)n3)cc2)CC1` was run?
A: 82%

Q: What about the kinase still bound, per cent of control [2] of the same compound?
A: 2.6%

Q: What about the kinase still bound, per cent of control [3] of the same compound?
A: 74%

Q: What about the kinase still bound, per cent of control [4] of the same compound?
A: 42%

Q: And the kinase still bound, per cent of control [5]?
A: 50%

Q: And the kinase still bound, per cent of control [6]?
A: 92%

Q: What about the kinase still bound, per cent of control [7] of the same compound?
A: 51%

Q: What about the kinase still bound, per cent of control [8] of the same compound?
A: 100%

Q: And the kinase still bound, per cent of control [9]?
A: 71%

Q: And the kinase still bound, per cent of control [10]?
A: 9.8%

Q: What about the kinase still bound, per cent of control [11] of the same compound?
A: 97%

Q: And the kinase still bound, per cent of control [12]?
A: 68%

Q: And the kinase still bound, per cent of control [13]?
A: 36%

Q: What about the kinase still bound, per cent of control [14] of the same compound?
A: 100%

Q: What about the kinase still bound, per cent of control [15] of the same compound?
A: 83%

Q: And the kinase still bound, per cent of control [16]?
A: 81%

Q: And the kinase still bound, per cent of control [17]?
A: 17%

Q: And the kinase still bound, per cent of control [18]?
A: 100%

Q: And the kinase still bound, per cent of control [19]?
A: 0.15%

Q: What about the kinase still bound, per cent of control [20] of the same compound?
A: 66%

Q: What about the kinase still bound, per cent of control [21] of the same compound?
A: 87%

Q: What about the kinase still bound, per cent of control [22] of the same compound?
A: 88%

Q: What about the kinase still bound, per cent of control [23] of the same compound?
A: 63%

Q: What about the kinase still bound, per cent of control [24] of the same compound?
A: 43%

Q: What about the kinase still bound, per cent of control [25] of the same compound?
A: 3%

Q: What about the kinase still bound, per cent of control [26] of the same compound?
A: 46%

Q: And the kinase still bound, per cent of control [27]?
A: 48%

Q: What about the kinase still bound, per cent of control [28] of the same compound?
A: 2.9%

Q: What about the kinase still bound, per cent of control [29] of the same compound?
A: 77%

Q: And the kinase still bound, per cent of control [30]?
A: 49%

Q: And the kinase still bound, per cent of control [31]?
A: 15%

Q: What about the kinase still bound, per cent of control [32] of the same compound?
A: 100%

Q: And the kinase still bound, per cent of control [33]?
A: 31%

Q: What about the kinase still bound, per cent of control [34] of the same compound?
A: 43%

Q: What about the kinase still bound, per cent of control [35] of the same compound?
A: 32%

Q: What about the kinase still bound, per cent of control [36] of the same compound?
A: 30%

Q: What about the kinase still bound, per cent of control [37] of the same compound?
A: 21%

Q: What about the kinase still bound, per cent of control [38] of the same compound?
A: 78%

Q: And the kinase still bound, per cent of control [39]?
A: 80%

Q: What about the kinase still bound, per cent of control [40] of the same compound?
A: 22%

Q: For `COc1cc2ncnc(-n3nc(-c4ccccn4)nc3N)c2cc1OC`, which kinase still bound, per cent of control [1] is on record?
A: 26%

Q: And the kinase still bound, per cent of control [2]?
A: 1.6%

Q: And the kinase still bound, per cent of control [3]?
A: 100%

Q: And the kinase still bound, per cent of control [4]?
A: 36%

Q: And the kinase still bound, per cent of control [5]?
A: 53%

Q: What about the kinase still bound, per cent of control [6] of the same compound?
A: 19%

Q: And the kinase still bound, per cent of control [7]?
A: 43%

Q: What about the kinase still bound, per cent of control [8] of the same compound?
A: 9.9%

Q: What about the kinase still bound, per cent of control [9] of the same compound?
A: 19%

Q: What about the kinase still bound, per cent of control [10] of the same compound?
A: 1.1%

Q: What about the kinase still bound, per cent of control [11] of the same compound?
A: 66%

Q: What about the kinase still bound, per cent of control [12] of the same compound?
A: 83%

Q: What about the kinase still bound, per cent of control [13] of the same compound?
A: 12%

Q: And the kinase still bound, per cent of control [14]?
A: 79%

Q: And the kinase still bound, per cent of control [15]?
A: 100%

Q: And the kinase still bound, per cent of control [16]?
A: 21%

Q: What about the kinase still bound, per cent of control [17] of the same compound?
A: 2%

Q: What about the kinase still bound, per cent of control [18] of the same compound?
A: 22%

Q: And the kinase still bound, per cent of control [19]?
A: 3.4%

Q: And the kinase still bound, per cent of control [20]?
A: 32%

Q: What about the kinase still bound, per cent of control [21] of the same compound?
A: 57%

Q: What about the kinase still bound, per cent of control [22] of the same compound?
A: 88%

Q: And the kinase still bound, per cent of control [23]?
A: 100%

Q: What about the kinase still bound, per cent of control [24] of the same compound?
A: 36%

Q: What about the kinase still bound, per cent of control [25] of the same compound?
A: 0.4%

Q: What about the kinase still bound, per cent of control [26] of the same compound?
A: 23%

Q: And the kinase still bound, per cent of control [27]?
A: 99%

Q: And the kinase still bound, per cent of control [28]?
A: 15%

Q: What about the kinase still bound, per cent of control [29] of the same compound?
A: 55%

Q: What about the kinase still bound, per cent of control [30] of the same compound?
A: 48%

Q: What about the kinase still bound, per cent of control [31] of the same compound?
A: 12%

Q: What about the kinase still bound, per cent of control [32] of the same compound?
A: 32%

Q: What about the kinase still bound, per cent of control [33] of the same compound?
A: 80%

Q: What about the kinase still bound, per cent of control [34] of the same compound?
A: 62%

Q: What about the kinase still bound, per cent of control [35] of the same compound?
A: 24%

Q: And the kinase still bound, per cent of control [36]?
A: 20%

Q: And the kinase still bound, per cent of control [37]?
A: 60%

Q: And the kinase still bound, per cent of control [38]?
A: 56%

Q: What about the kinase still bound, per cent of control [39] of the same compound?
A: 100%

Q: What about the kinase still bound, per cent of control [40] of the same compound?
A: 2.8%
